Laboratory results taken from ChEMBL document CHEMBL1145276, “Synthesis and biological evaluation of 6,7-disubstituted 4-aminopyrido[2,3-d]pyrimidines as adenosine kinase inhibitors” (Bioorg Med Chem Lett, 2005).

Key:
[1] = target: T1, Adenosine kinase (Homo sapiens, UniProt P55263); assay: Inhibitory concentration against Adenosine Kinase (intact cells)
[2] = target: T1, Adenosine kinase; assay: Inhibitory concentration against Adenosine Kinase (enzyme)

T1 sequence (P55263 whole entry): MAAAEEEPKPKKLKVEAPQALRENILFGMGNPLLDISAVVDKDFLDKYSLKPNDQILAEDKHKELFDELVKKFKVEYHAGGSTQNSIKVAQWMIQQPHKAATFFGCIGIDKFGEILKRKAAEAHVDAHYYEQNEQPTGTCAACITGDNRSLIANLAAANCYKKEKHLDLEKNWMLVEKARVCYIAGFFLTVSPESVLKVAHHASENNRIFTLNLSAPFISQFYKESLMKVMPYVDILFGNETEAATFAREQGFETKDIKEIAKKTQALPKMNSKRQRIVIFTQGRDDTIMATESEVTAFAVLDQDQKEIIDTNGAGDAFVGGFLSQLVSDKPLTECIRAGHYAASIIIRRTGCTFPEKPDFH

Structure (SMILES) | IC50 [1] [nM] | IC50 [2] [nM]
Cc1ccc(-c2cc3c(N)ncnc3nc2-c2ccc(/C=C/c3ccccn3)cc2)cc1 |  | 115
Cc1ccc(-c2cc3c(N)ncnc3nc2-c2ccc(-c3cncnc3)cc2)cc1 |  | 180
Cc1ccc(-c2cc3c(N)ncnc3nc2-c2cc3ccccc3o2)cc1 |  | > 1000
CN(C)c1ccc(-c2cnc3c(N)ncnc3n2)cc1 |  | 440
Nc1ncnc2nc(-c3nccs3)c(Cc3cccc(Br)c3)cc12 |  | 900
COc1ccc(-c2cc3c(N)ncnc3nc2-c2ccc(N(C)C)cc2)cc1Br | 225 | 33
Nc1ncnc2nc(-c3cccs3)c(Cc3cccc(Br)c3)cc12 | 650 | 3.8
COc1ccc(-c2cc3c(N)ncnc3nc2-c2ccc(N(C)C)cc2)cc1OC | 350 | 45
Cc1ccc(-c2cc3c(N)ncnc3nc2-c2cccs2)cc1 | 800 | 9
Cc1ccc(-c2cc3c(N)ncnc3nc2-c2ccsc2)cc1 | > 1000 | 47
CN(C)c1ccc(-c2cc3c(N)ncnc3nc2-c2ccc(N(C)C)cc2)cc1 | 367 | 183
COc1ccc(-c2cc3c(N)ncnc3nc2-c2cccs2)cc1Br | 375 | 8
COc1ccc(-c2cc3c(N)ncnc3nc2-c2cccs2)cc1OC | 300 | 38
CCCCc1cc2c(N)ncnc2nc1-c1cccs1 | 767 | 11

Results, then the molecule that gave them:

IC50 [1] [nM] | IC50 [2] [nM] | Structure (SMILES)
4170 | 467 | CN(C)c1ccc(-c2cc3c(N)ncnc3nc2-c2ccncc2)cc1
> 10000 | 773 | CN(C)c1ccc(-c2ccc3c(N)ncnc3n2)cc1
> 1000 | 70 | CN(C)c1ccc(-c2nc3ncnc(N)c3cc2-c2cccc(Br)c2)cc1
> 1000 | 200 | CC(C)Cc1cc2c(N)ncnc2nc1-c1ccc(N(C)C)cc1
700 | 30 | CCCCCc1cc2c(N)ncnc2nc1-c1ccc(N(C)C)cc1
 | 350 | CN(C)c1ccc(-c2nc3ncnc(N)c3cc2-c2ccccc2)cc1
 | 2230 | CN(C)c1ccc(-c2nc3ncnc(N)c3cc2CCCc2ccccc2)cc1
 | > 1000 | COc1cccc(-c2cc3c(N)ncnc3nc2-c2ccc(N(C)C)cc2)c1
 | 433 | CN(C)c1ccc(-c2nc3ncnc(N)c3cc2CCc2ccccc2)cc1
 | 92 | COc1ccc(-c2cc3c(N)ncnc3nc2-c2ccc(N(C)C)cc2)cc1
650 | 114 | CN(C)c1ccc(-c2nc3ncnc(N)c3cc2Cc2ccccc2)cc1
> 1000 | 20 | CN(C)c1ccc(-c2nc3ncnc(N)c3cc2-c2ccc(Br)cc2)cc1
